These results are taken from patent US20050197350A1, “Novel quinoline, tetrahydroquinazoline, and pyrimidine derivatives and methods of treatment related to the use thereof” (TAISHO PHARMACEUTICAL CO., LTD., priority 2003, published 2005).

This test deals with MCH receptors. The test can be described thus: MCH receptor activity class (method not given).
Setting [1] is: MCH receptor, class by percent of control at 10^-7 M or IC50.
[2] abbreviates: class by percent of control at 10^-7 M or IC50.
Setting [3] is: activity class 1-3: percent of control at 10^-7 M or IC50.
[4] abbreviates: activity class per percent of control at 10^-7 M or IC50.
[5] abbreviates: class by percent of control at 10^−7 M or IC50.
Where [6] appears, read: MCH receptor activity class 1-3 (percent of control at 10^-7 M or IC50).

Consider `CN(C)c1cc(N[C@H]2CC[C@@H](NC(=O)c3cccc(Br)c3)CC2)nc2ccccc12` [compound 21], for which, under setting [1], the class is recorded as 1 (Class 1: The value of percent of control at 10^−7 M was less than 40% or the value of IC50 was less than 50 nM.).

As for `CN(C)c1ccnc(N[C@H]2CC[C@@H](NC(=O)COc3ccccc3[N+](=O)[O-])CC2)n1` [compound 331], the class under setting [2] was 3 (Class 3 The value of percent of control at 10^−7 M was more than 60% or the value of IC50 was more than 200 nM.). With `CC(NC(=O)NC1CCC(Nc2nc3c(c(N(C)C)n2)CCCC3)CC1)c1ccccc1` (stereo not drawn) [compound 1707], under setting [3], the class is listed as 3 (Class 3 The value of percent of control at 10^−7 M was more than 60% or the value of IC50 was more than 200 nM.). For the compound `CN(C)c1ccnc(N[C@H]2CC[C@@H](CNC(=O)c3ccc(I)cc3)CC2)n1` [compound 386], under setting [2], the class is 3 (Class 3 The value of percent of control at 10^−7 M was more than 60% or the value of IC50 was more than 200 nM.). In the case of `CN(C)c1nc(N[C@H]2CC[C@@H](CNC(=O)c3ccc4c(c3)OCO4)CC2)nc2c1CCCC2` [compound 609], the class under setting [2] is reported as 3 (Class 3 The value of percent of control at 10^−7 M was more than 60% or the value of IC50 was more than 200 nM.). As for `CN(C)c1ccnc(N[C@H]2CC[C@@H](NC[C@@H](COCc3ccccc3)OCc3ccccc3)CC2)n1` [compound 1521], the class under setting [3] was 3 (Class 3 The value of percent of control at 10^−7 M was more than 60% or the value of IC50 was more than 200 nM.). As for `Cc1cccc(CNC(=S)N[C@H]2CC[C@@H](Nc3nc4c(c(N(C)C)n3)CCCC4)CC2)c1` [compound 2045], the class under setting [1] is 3 (Class 3 The value of percent of control at 10^−7 M was more than 60% or the value of IC50 was more than 200 nM.). Take `CN(C)c1nc(N[C@H]2CC[C@@H](NC(=O)c3cccc4ccccc34)CC2)nc2c1CCCC2` [compound 545]: where the note is “class 1-3 by percent of control at 10^-7 M or IC50”, the class is given as 3 (Class 3 The value of percent of control at 10^−7 M was more than 60% or the value of IC50 was more than 200 nM.). Turning to `COc1ccccc1/C=C/CN[C@H]1CC[C@@H](Nc2cc(N(C)C)c3ccccc3n2)CC1` [compound 1112], the class under setting [4] is recorded as 3 (Class 3 The value of percent of control at 10^−7 M was more than 60% or the value of IC50 was more than 200 nM.). Regarding `Cc1cc(CNC[C@H]2CC[C@@H](Nc3nc4c(c(N(C)C)n3)CCCC4)CC2)cc(C)c1O` [compound 1382], under setting [2], the class was 2 (Class 2: The value of percent of control at 10^−7 M was from 40% to 60% or the value of IC′50 was from 50 nM to 200 nM.). On the same count and under the same terms, with `COc1cccc2cc(C(=O)N[C@H]3CC[C@@H](Nc4nccc(N(C)C)n4)CC3)oc12` [compound 921] the figure was 3 (Class 3 The value of percent of control at 10^−7 M was more than 60% or the value of IC50 was more than 200 nM.); with `CN(C)c1nc(N[C@H]2CC[C@@H](NC(=O)Nc3cc(Cl)ccc3Cl)CC2)nc2c1CCCC2` [compound 1821], 3 (Class 3 The value of percent of control at 10^−7 M was more than 60% or the value of IC50 was more than 200 nM.); with `CN(C)c1nc(N[C@H]2CC[C@@H](NC(=S)Nc3c(Cl)cc(Cl)cc3Cl)CC2)nc2c1CCCC2` [compound 1754], 2 (Class 2: The value of percent of control at 10^−7 M was from 40% to 60% or the value of IC′50 was from 50 nM to 200 nM.). For the compound `CN(C)c1nc(N[C@H]2CC[C@@H](CNCc3ccc(N(C)CCC#N)cc3)CC2)nc2c1CCCC2` [compound 1444], the class under setting [2] is given as 3 (Class 3 The value of percent of control at 10^−7 M was more than 60% or the value of IC50 was more than 200 nM.).

Regarding `CN(C)c1nc(N[C@H]2CC[C@@H](NC(=S)Nc3ccc(F)c(Cl)c3)CC2)nc2c1CCCC2` [compound 2071], under setting [1], the class is 3 (Class 3 The value of percent of control at 10^−7 M was more than 60% or the value of IC50 was more than 200 nM.). Regarding `Cc1cc(C)cc(NC(=S)N[C@H]2CC[C@@H](Nc3nc4c(c(N(C)C)n3)CCCC4)CC2)c1` [compound 2007], the class under setting [1] is 3 (Class 3 The value of percent of control at 10^−7 M was more than 60% or the value of IC50 was more than 200 nM.). Regarding `Cc1ccc(NC(=O)N[C@H]2CC[C@@H](Nc3nc4c(c(N(C)C)n3)CCCC4)CC2)c(C)c1` [compound 1847], under setting [2], the class is 3 (Class 3 The value of percent of control at 10^−7 M was more than 60% or the value of IC50 was more than 200 nM.). `CN(C)c1nc(N[C@H]2CC[C@@H](NC(=S)Nc3ccc(Cl)cc3)CC2)nc2c1CCCC2` [compound 1934]: the class under setting [1] was 3 (Class 3 The value of percent of control at 10^−7 M was more than 60% or the value of IC50 was more than 200 nM.). With `Cc1cc(N(C)C)nc(N[C@H]2CC[C@@H](NC(=O)c3cncc(Br)c3)CC2)n1` [compound 2978, 5-bromo-N-(cis-4-{[4-(dimethylamino)-6-methylpyrimidin-2-yl]amino}cyclohexyl)nicotinamide], the class under setting [5] was 1 (Class 1: The value of percent of control at 10^−7 M was less than 40% or the value of IC50 was less than 50 nM.).

As for `CN(C)c1ccnc(N[C@H]2CC[C@@H](CNC(=O)Nc3cc(Cl)cc(Cl)c3)CC2)n1` [compound 2439], the class under setting [6] is recorded as 2 (Class 2: The value of percent of control at 10^−7 M was from 40% to 60% or the value of IC′50 was from 50 nM to 200 nM.). Consider `CN(C)c1nc(N[C@H]2CC[C@@H](NC(=S)Nc3ccc(C#N)cc3)CC2)nc2c1CCCC2` [compound 1738], for which the class under setting [2] is given as 3 (Class 3 The value of percent of control at 10^−7 M was more than 60% or the value of IC50 was more than 200 nM.). Take `CN(C)c1ccnc(N[C@H]2CC[C@@H](NC(=S)NCc3ccccc3Cl)CC2)n1` [compound 2324]: the class under setting [6] is 3 (Class 3 The value of percent of control at 10^−7 M was more than 60% or the value of IC50 was more than 200 nM.).

Regarding `CN(C)c1nc(N[C@H]2CC[C@@H](CNC(=O)c3c(Cl)cccc3Cl)CC2)nc2c1CCCC2` [compound 656, 2,6-dichloro-N-[(cis-4-{[4-(dimethylamino)-5,6,7,8-tetrahydroquinazolin-2-yl]amino}cyclohexyl)methyl]benzamide], the class under setting [2] is 2 (Class 2: The value of percent of control at 10^−7 M was from 40% to 60% or the value of IC′50 was from 50 nM to 200 nM.). Still for that read-out and setting: the result for `CN(C)c1ccnc(N[C@H]2CC[C@@H](CNC(=O)c3cccc(Cl)c3F)CC2)n1` [compound 404] reads 3 (Class 3 The value of percent of control at 10^−7 M was more than 60% or the value of IC50 was more than 200 nM.). With `Cc1ccc(C(=O)NC[C@H]2CC[C@@H](Nc3cc(N(C)C)c4ccccc4n3)CC2)cc1F` [compound 201, N-[(cis-4-{[4-(dimethylamino)quinolin-2-yl]amino}cyclohexyl)methyl]-3-fluoro-4-methylbenzamide], the class under setting [1] is listed as 3 (Class 3 The value of percent of control at 10^−7 M was more than 60% or the value of IC50 was more than 200 nM.). As for `Cc1nc(C(=O)N[C@H]2CC[C@@H](Nc3nc(C)c(C)c(N(C)C)n3)CC2)co1` [compound 2830, N-(cis-4-{[4-(dimethylamino)-5,6-dimethylpyrimidin-2-yl]amino}cyclohexyl)-2-methyl-1,3-oxazole-4-carboxamide], the class under setting [5] is 2 (Class 2: The value of percent of control at 10^−7 M was from 40% to 60% or the value of IC′50 was from 50 nM to 200 nM.). In the case of `CN(C)c1nc(N[C@H]2CC[C@@H](NC(=O)C(CC(=O)c3ccccc3)c3c[nH]c4ccccc34)CC2)nc2c1CCCC2` (relative stereo) [compound 991], the class under setting [4] is reported as 2 (Class 2: The value of percent of control at 10^−7 M was from 40% to 60% or the value of IC′50 was from 50 nM to 200 nM.).
